# Measurements from US12569452B2, “Ophthalmic compositions comprising F6H8” (NOVALIQ GMBH, priority 2017, dated 2026).
# Key:
# [1] = Quantitative autoradiography of whole head after single topical ocular dose of 14C-F6H8; format: in vivo, female Dutch Belted rabbits; conditions: single dose 35 μl
# Description: Quantitative Autoradiography: Animals are euthanized with sodium pentobarbital and blood is collected via cardiac puncture. Immediately after blood collection, the animals were frozen for quantitative autoradiography. The frozen heads are embedded in chilled carboxymethyl cellulose and frozen into blocks. Appropriate sections are collected on adhesive tape at […], in a Leica CM 3600 cryomicrotome. Mounted sections are exposed for 4 days on phosphor imaging screens along with fortified blood standards for subsequent calibration of the image analysis software and subsequently scanned using a Typhoon scanner. The autoradiographic standard image data are sampled using InterFocus Imaging Ltd. MCID™ Analysis software to create a calibrated standard curve. Specified tissues and fluids are analysed. Tissue concentrations are interpolated from each standard curve as nanocuries/g and then converted to ng equivalents/g on the basis of the test article specific activity.
# The highest concentrations (>10000 ng equivalents ^14C—F6H8/g) are found in the anterior tissues in the order eyelid margin (443000)>internal eyelid (171000)>cornea (33500). Other tissues with high concentrations are the external eyelid skin, nasolacrimal duct, and nasal turbinates.
# [2] = Ocular tissue distribution after single topical ocular dose of 14C-F6H8, liquid scintillation counting; format: in vivo, Dutch Belted (pigmented) female rabbits; conditions: for Mean concentration of radioactivity, Conjunctiva (bulbar) / Mean concentration of radioactivity, Conjunctiva (palpebral) / Mean concentration of radioactivity, Cornea / Mean concentration of radioactivity, Lacrimal gland (accessory) / Mean concentration of radioactivity, Lacrimal gland (main) / Mean concentration of radioactivity, Meibomian glands / Mean concentration of radioactivity, Sclera (anterior) / Mean concentration of radioactivity, Tears: single topical ocular dose
# Method: The study is conducted to assess the ocular tissue distribution after topical ocular administration of ^14C-1-Perfluorohexyloctane (F6H8, NovaTears®) to Dutch Belted (pigmented) female rabbits.
# On the first day of dosing, 5.474 mL of ^14C—F6H8 is combined with 9.526 mL of F6H8. The dose formulation is magnetically stirred and appears to be a colorless solution. The dose formulation is separated into vials to provide one vial per day for dose administration and it is stored at approximately −20° C. One vial per day is thawed prior to dose administration. In between dose administrations, the vial is capped and stored at approximately 5° C. when not in use.
# Animals are not fasted prior to dose administration. All animals receive single 35 μL-drops of the dose formulation in each eye, with the right eye dosed first. All collection times are based on the time of dosing of the second (left) eye for the last dose, as applicable.
# After the dose is administered, the eye is allowed to close naturally. Each animal is then restrained for approximately 1 minute to prevent rubbing of the eyes.
# Tears and Ocular Tissue Collection: Tears are collected from two animals per group per time point at 0.25, 0.5, 1, 2, 4, 8, and 24 hours post-dose following the single dose or the last dose of the multiple dose scheme. Tears are collected using Tear Flo Test (TFT) strips that were dye free. One strip of paper is used for each eye for each time point. Following collection, the tube containing the strip is placed on dry ice or stored at approximately −70° C. until analysed.
# At the time of sacrifice, both eyes are enucleated and ocular tissues including Aqueous humour, Conjunctiva (bulbar), Conjunctiva (palpebral), Lacrimal gland (accessory), Lacrimal gland (main), Meibomian glands (tarsal plate), Choroid-Retinal pigmented epithelium (Choroid-RPE), Cornea, Iris-ciliary body (ICB), Retina, Sclera (anterior), Sclera (posterior), Vitreous humour are collected.
# Radioanalysis: All samples are analyzed for radioactivity in a Model 2900TR liquid scintillation counter (Packard Instrument Company) for at least 5 minutes or 100,000 counts, utilizing Ultima Gold XR or Hionic Fluor scintillation cocktails (Perkin Elmer). Each sample is homogenized before radioanalysis, unless the entire sample is used for analysis. All samples are analyzed in duplicate if sample size allows.
# For Conjunctiva (bulbar and palpebral), Cornea, Lacrimal gland (main), Meibomian glands, Retina, and Sclera (anterior and posterior), each sample is digested in 2M sodium hydroxide in ethanol (80:20, v:v) and maintained at room temperature or in an oven set no higher than 30° C. until dissolved. Scintillation cocktail is added, and the samples are shaken and analyzed directly by LSC.
# For Lacrimal gland (accessory), each sample is digested in 2M sodium hydroxide in ethanol (80:20, v:v) and maintained at room temperature or in an oven set no higher than 30° C. until dissolved. The sample is homogenized by mixing and duplicate weighed aliquots are analyzed directly by LSC.
# For Tears, at least 10 mL of Ultima Gold XR scintillation cocktail is added, and the samples are shaken and analyzed by LSC.
# Single topical ocular administration, radioanalysis of ocular tissues: The rabbits received a single topical ocular administration in both eyes. The target dose level is 45.6 mg/eye (25 μCi/eye). Following the single topical ocular dose of 35 μl of ^14C—F6H8, two animals per time point are sacrificed at 0.25, 0.5, 1, 2, 4, 8, and 24 hours post-dose in a sparse sampling profile. Ocular tissues (including tears collected prior to sacrifice) are collected from all animals at sacrifice.
# [3] = single dose, between 0.25 and 4 hours post-dose
substance,measurement,setting,value
^14C-1-Perfluorohexyloctane [^14C-F6H8],"Highest concentration, cornea",[1],33500 ng equivalents ^14C—F6H8/g
same,"Highest concentration, eyelid margin",[1],443000 ng equivalents ^14C—F6H8/g
same,"Highest concentration, internal eyelid",[1],171000 ng equivalents ^14C—F6H8/g
same,Radioactivity in the iris-ciliary body and choroid-RPE,[2]; single dose,No radioactivity is detected
same,Radioactivity in the vitreous humour and retina,[2]; single dose,Low levels
same,"Highest mean concentration, Meibomian glands",[2]; [3],294000 ng equivalents ^14C—F6H8/g
same,"Highest mean concentration, accessory lacrimal gland",[2]; [3],4280 ng equivalents ^14C—F6H8/g
same,"Highest mean concentration, anterior sclera",[2]; [3],2270 ng equivalents ^14C—F6H8/g
same,"Highest mean concentration, bulbar conjunctiva",[2]; [3],5450 ng equivalents ^14C—F6H8/g
same,"Highest mean concentration, cornea",[2]; [3],8230 ng equivalents ^14C—F6H8/g
same,"Highest mean concentration, main lacrimal gland",[2]; [3],4130 ng equivalents ^14C—F6H8/g
same,"Highest mean concentration, palpebral conjunctiva",[2]; [3],14200 ng equivalents ^14C—F6H8/g
same,"Highest mean concentration, tears",[2]; [3],2390000 ng equivalents ^14C—F6H8/g
same,"Mean concentration of radioactivity, Conjunctiva (bulbar)",[2]; 0.25 h post-dose,5450 ng Equivalents ^14C-F6H8/g
same,"Mean concentration of radioactivity, Conjunctiva (palpebral)",[2]; 0.25 h post-dose,14200 ng Equivalents ^14C-F6H8/g
same,"Mean concentration of radioactivity, Cornea",[2]; 0.25 h post-dose,2040 ng Equivalents ^14C-F6H8/g
same,"Mean concentration of radioactivity, Lacrimal gland (accessory)",[2]; 0.25 h post-dose,577 ng Equivalents ^14C-F6H8/g
same,"Mean concentration of radioactivity, Lacrimal gland (main)",[2]; 0.25 h post-dose,1670 ng Equivalents ^14C-F6H8/g
same,"Mean concentration of radioactivity, Meibomian glands",[2]; 0.25 h post-dose,294000 ng Equivalents ^14C-F6H8/g
same,"Mean concentration of radioactivity, Sclera (anterior)",[2]; 0.25 h post-dose,1140 ng Equivalents ^14C-F6H8/g
same,"Mean concentration of radioactivity, Tears",[2]; 0.25 h post-dose,2390000 ng Equivalents ^14C-F6H8/g
same,"Mean concentration of radioactivity, Conjunctiva (bulbar)",[2]; 0.5 h post-dose,3680 ng Equivalents ^14C-F6H8/g
same,"Mean concentration of radioactivity, Conjunctiva (palpebral)",[2]; 0.5 h post-dose,5180 ng Equivalents ^14C-F6H8/g
same,"Mean concentration of radioactivity, Cornea",[2]; 0.5 h post-dose,8230 ng Equivalents ^14C-F6H8/g
same,"Mean concentration of radioactivity, Lacrimal gland (accessory)",[2]; 0.5 h post-dose,0.00 ng Equivalents ^14C-F6H8/g
same,"Mean concentration of radioactivity, Lacrimal gland (main)",[2]; 0.5 h post-dose,2770 ng Equivalents ^14C-F6H8/g
same,"Mean concentration of radioactivity, Meibomian glands",[2]; 0.5 h post-dose,102000 ng Equivalents ^14C-F6H8/g
same,"Mean concentration of radioactivity, Sclera (anterior)",[2]; 0.5 h post-dose,2270 ng Equivalents ^14C-F6H8/g
same,"Mean concentration of radioactivity, Tears",[2]; 0.5 h post-dose,995000 ng Equivalents ^14C-F6H8/g
same,"Mean concentration of radioactivity, Conjunctiva (bulbar)",[2]; 1 h post-dose,3320 ng Equivalents ^14C-F6H8/g
same,"Mean concentration of radioactivity, Conjunctiva (palpebral)",[2]; 1 h post-dose,5700 ng Equivalents ^14C-F6H8/g
same,"Mean concentration of radioactivity, Cornea",[2]; 1 h post-dose,6110 ng Equivalents ^14C-F6H8/g
same,"Mean concentration of radioactivity, Lacrimal gland (accessory)",[2]; 1 h post-dose,255 ng Equivalents ^14C-F6H8/g
same,"Mean concentration of radioactivity, Lacrimal gland (main)",[2]; 1 h post-dose,641 ng Equivalents ^14C-F6H8/g
same,"Mean concentration of radioactivity, Meibomian glands",[2]; 1 h post-dose,57600 ng Equivalents ^14C-F6H8/g
same,"Mean concentration of radioactivity, Sclera (anterior)",[2]; 1 h post-dose,1300 ng Equivalents ^14C-F6H8/g
same,"Mean concentration of radioactivity, Tears",[2]; 1 h post-dose,444000 ng Equivalents ^14C-F6H8/g
same,"Mean concentration of radioactivity, Conjunctiva (bulbar)",[2]; 2 h post-dose,3050 ng Equivalents ^14C-F6H8/g
same,"Mean concentration of radioactivity, Conjunctiva (palpebral)",[2]; 2 h post-dose,4230 ng Equivalents ^14C-F6H8/g
same,"Mean concentration of radioactivity, Cornea",[2]; 2 h post-dose,3230 ng Equivalents ^14C-F6H8/g
same,"Mean concentration of radioactivity, Lacrimal gland (accessory)",[2]; 2 h post-dose,1450 ng Equivalents ^14C-F6H8/g
same,"Mean concentration of radioactivity, Lacrimal gland (main)",[2]; 2 h post-dose,1530 ng Equivalents ^14C-F6H8/g
same,"Mean concentration of radioactivity, Meibomian glands",[2]; 2 h post-dose,69200 ng Equivalents ^14C-F6H8/g
same,"Mean concentration of radioactivity, Sclera (anterior)",[2]; 2 h post-dose,767 ng Equivalents ^14C-F6H8/g
same,"Mean concentration of radioactivity, Tears",[2]; 2 h post-dose,700000 ng Equivalents ^14C-F6H8/g
same,"Mean concentration of radioactivity, Conjunctiva (bulbar)",[2]; 4 h post-dose,1610 ng Equivalents ^14C-F6H8/g
same,"Mean concentration of radioactivity, Conjunctiva (palpebral)",[2]; 4 h post-dose,2500 ng Equivalents ^14C-F6H8/g
same,"Mean concentration of radioactivity, Cornea",[2]; 4 h post-dose,4480 ng Equivalents ^14C-F6H8/g
same,"Mean concentration of radioactivity, Lacrimal gland (accessory)",[2]; 4 h post-dose,4280 ng Equivalents ^14C-F6H8/g
same,"Mean concentration of radioactivity, Lacrimal gland (main)",[2]; 4 h post-dose,4130 ng Equivalents ^14C-F6H8/g
same,"Mean concentration of radioactivity, Meibomian glands",[2]; 4 h post-dose,29100 ng Equivalents ^14C-F6H8/g
same,"Mean concentration of radioactivity, Sclera (anterior)",[2]; 4 h post-dose,1170 ng Equivalents ^14C-F6H8/g
same,"Mean concentration of radioactivity, Tears",[2]; 4 h post-dose,207000 ng Equivalents ^14C-F6H8/g
same,"Mean concentration of radioactivity, Conjunctiva (bulbar)",[2]; 8 h post-dose,1340 ng Equivalents ^14C-F6H8/g
same,"Mean concentration of radioactivity, Conjunctiva (palpebral)",[2]; 8 h post-dose,1790 ng Equivalents ^14C-F6H8/g
same,"Mean concentration of radioactivity, Cornea",[2]; 8 h post-dose,6080 ng Equivalents ^14C-F6H8/g
same,"Mean concentration of radioactivity, Lacrimal gland (accessory)",[2]; 8 h post-dose,2110 ng Equivalents ^14C-F6H8/g
same,"Mean concentration of radioactivity, Lacrimal gland (main)",[2]; 8 h post-dose,2120 ng Equivalents ^14C-F6H8/g
same,"Mean concentration of radioactivity, Meibomian glands",[2]; 8 h post-dose,21100 ng Equivalents ^14C-F6H8/g
same,"Mean concentration of radioactivity, Sclera (anterior)",[2]; 8 h post-dose,1330 ng Equivalents ^14C-F6H8/g
same,"Mean concentration of radioactivity, Tears",[2]; 8 h post-dose,6660 ng Equivalents ^14C-F6H8/g
same,"Mean concentration of radioactivity, Conjunctiva (bulbar)",[2]; 24 h post-dose,1090 ng Equivalents ^14C-F6H8/g
same,"Mean concentration of radioactivity, Conjunctiva (palpebral)",[2]; 24 h post-dose,2270 ng Equivalents ^14C-F6H8/g
same,"Mean concentration of radioactivity, Cornea",[2]; 24 h post-dose,2730 ng Equivalents ^14C-F6H8/g
same,"Mean concentration of radioactivity, Lacrimal gland (accessory)",[2]; 24 h post-dose,1500 ng Equivalents ^14C-F6H8/g
same,"Mean concentration of radioactivity, Lacrimal gland (main)",[2]; 24 h post-dose,1810 ng Equivalents ^14C-F6H8/g
same,"Mean concentration of radioactivity, Meibomian glands",[2]; 24 h post-dose,14700 ng Equivalents ^14C-F6H8/g
same,"Mean concentration of radioactivity, Sclera (anterior)",[2]; 24 h post-dose,611 ng Equivalents ^14C-F6H8/g
same,"Mean concentration of radioactivity, Tears",[2]; 24 h post-dose,1300 ng Equivalents ^14C-F6H8/g
